{"source": "patent US20240315956A1", "about": "“METHOD OF PRODUCTION OF THE COMPOSITION OF CYCLOOXYGENASE-2 (COX-2) INHIBITORS” (US NANO FOOD & DRUG INC, priority 2021, published 2024)", "origin": "cited, not measured here"}
{"smiles": "Cc1ccc(-c2cc(C(F)(F)F)nn2-c2ccc(S(N)(=O)=O)cc2)cc1", "note": "[Celecoxib]", "values": [{"measurement": "solubility in water", "result": "practically insoluble in water"}]}
{"smiles": "CCCN1CC(c2ccc(S(C)(=O)=O)cc2)=C(c2ccc(C)cc2)C1=O", "note": "[Imrecoxib]", "values": [{"measurement": "solubility in water", "result": "practically insoluble in water"}]}
{"smiles": "CCC1(C)CC(=O)NC1=O", "note": "(stereo not shown) [ethosuximide]", "values": [{"measurement": "pKa", "result": 10.73}]}
{"smiles": "Nc1nnc(-c2cccc(Cl)c2Cl)c(N)n1", "note": "[lamotrigine]", "values": [{"measurement": "pKa", "result": 15}]}
